≈ marks a conversion by molar mass, not a printed value. Non-standard residues stand in square brackets, D forms with d. Residues, ends and D or L forms follow the SMILES beside them.
How the values were obtained:
human red blood cells = experiment: Hemolysis assay, minimum hemolytic concentration; settings: for Haemolysis on hRBC, MHC: 2.5% human red blood cells (final) in 10 mM phosphate, 150 mM NaCl, pH 7.4, 25 °C, 4 h, visual inspection; for MHC human red blood cells: supplement CSV
A. baumannii ATCC19606 = experiment: microbe, parasite or virus in culture; settings: for MIC A. baumannii, 12.5% MHB / MIC A. baumannii, Full MHB: A. baumannii ATCC19606, 16–20 h at 37 °C; for MIC A. baumannii, 12.5% MHB: 12.5% Müller–Hinton medium; for MIC A. baumannii, Full MHB: full Müller–Hinton medium; for MIC A. baumannii ATCC19606: supplement CSV
Excerpt: (§1) We tested antibacterial effects against the Gram-negative bacteria Escherichia coli, Klebsiella pneumoniae, Pseudomonas aeruginosa, and Acinetobacter baumannii and the Gram-positive methicillin-resistant Staphylococcus aureus (MRSA).
(§2) Bacterial growth assay (Figure S1), transmission electron microscopy (Figure S6), serum stability assay (Figure S7), circular dichroism spectral recording (Figures S8 and S9), antimicrobial and hemolysis activity assays (MIC and MHC), and vesicle leakage assay were carried out as described in earlier publications.[43],[44]
(§3) Minimum inhibitory concentration assay
(§4) Antimicrobial activity was assayed against P. aeruginosa PAO1, K. pneumoniae NCTC418, E. coli W3110, A. baumannii ATCC 19606, methicillin-resistant S. aureus COL (MRSA), and for selected peptides on P. aeruginosa PA14 and the polymyxin-B-resistant derivative PA14 2P4, as well as the clinical isolates ZEM-1A and ZEM9A, K. pneumoniae OXA-48, S. aureus Newman, Enterobacter cloacae and Burkholderia cenocepacia. The minimal inhibitory concentration (MIC) was determined by using broth microdilution method. A colo ny of bacteria was picked and grown in Luria-Bertani (LB) medium overnight at 37°C. For E. coli BW25113 sbmA::kan the medium was supplemented with 25 mg/L of kanamycin. The next day, the culture was then regrown in LB medium to log phase (OD600 = 0.6 to 0.8), which lasted approximately 4 h, and diluted to an OD600 of 0.022 in the desired medium. Stock solutions of 1 mg/mL of the samples were prepared in sterilized milliQ water and diluted to the beginning concentration of 64 μg/mL in 300 μL Mueller Hinton (MH)-medium. The diluted samples were added to first well of 96-well microtiter plate (TPP, untreated, Faust Laborbedarf, AG, Schaffhausen) and diluted serially by ½. Finally, 4 μL of the bacterial suspension was inoculated into the sample solutions (150 μL/well) with a final inoculation of about 5∙10^5 CFU/mL. The plates were then incubated at 37°C for 15-18h. For each assay, sterility (broth only) and growth control (broth with bacterial inoculum, without antibiotics) were checked with two columns in the plate. The next day, 15 μL of 3-(4,5-dimethylthiazol-2-yl)-2,5-diphenyltetrazolium bromide (MTT) was added to each well of the plate, such a way that MIC was defined as the lowest concentration of the peptide that inhibited visible growth of the tested

S. aureus COL (MRSA) = experiment: microbe, parasite or virus in culture; settings: for MIC S. aureus, 12.5% MHB / MIC S. aureus, Full MHB: S. aureus COL (MRSA), 16–20 h at 37 °C; for MIC S. aureus, 12.5% MHB: 12.5% Müller–Hinton medium; for MIC S. aureus, Full MHB: full Müller–Hinton medium; for MIC S. aureus COL (MRSA): supplement CSV
Excerpt: as §1, §2, §3, §4

K. pneumoniae NCTC 418 = experiment: microbe, parasite or virus in culture; settings: for MIC K. pneumoniae, 12.5% MHB / MIC K. pneumoniae, Full MHB: K. pneumoniae NCTC 418, 16–20 h at 37 °C; for MIC K. pneumoniae, 12.5% MHB: 12.5% Müller–Hinton medium; for MIC K. pneumoniae, Full MHB: full Müller–Hinton medium; for MIC K. pneumoniae NCTC418: supplement CSV
Excerpt: as §1, §2, §3, §4

P. aeruginosa PAO1 = experiment: microbe, parasite or virus in culture; settings: for MIC P. aeruginosa, 12.5% MHB / MIC P. aeruginosa, Full MHB: P. aeruginosa PAO1, 16–20 h at 37 °C; for MIC P. aeruginosa, 12.5% MHB: 12.5% Müller–Hinton medium; for MIC P. aeruginosa, Full MHB: full Müller–Hinton medium; for MIC P. aeruginosa PAO1: supplement CSV
Excerpt: as §1, §2, §3, §4

E. coli W3110 = experiment: microbe, parasite or virus in culture; settings: for MIC E. coli, 12.5% MHB / MIC E. coli, Full MHB: E. coli W3110, 16–20 h at 37 °C, broth microdilution; for MIC E. coli, 12.5% MHB: 12.5% Müller–Hinton medium; for MIC E. coli, Full MHB: full Müller–Hinton medium; for MIC E. coli W3110: supplement CSV
Excerpt: as §1, §2, §3, §4

Row | Structure (SMILES) | Haemolysis on hRBC, MHC (human red blood cells) [µg/mL] | MHC human red blood cells (human red blood cells) [µg/mL] | MIC A. baumannii, 12.5% MHB (A. baumannii ATCC19606) [µg/mL] | MIC A. baumannii, Full MHB (A. baumannii ATCC19606) [µg/mL] | MIC A. baumannii ATCC19606 (A. baumannii ATCC19606; 12.5% MH pH 7.4) [µg/mL] | MIC A. baumannii ATCC19606 (A. baumannii ATCC19606; full MH pH 7.4) [µg/mL] | MIC S. aureus, 12.5% MHB (S. aureus COL (MRSA)) | MIC S. aureus, Full MHB (S. aureus COL (MRSA)) | MIC S. aureus COL (MRSA) (S. aureus COL (MRSA); 12.5% MH pH 7.4) [µg/mL] | MIC S. aureus COL (MRSA) (S. aureus COL (MRSA); full MH pH 7.4) [µg/mL] | MIC K. pneumoniae, 12.5% MHB (K. pneumoniae NCTC 418) [µg/mL] | MIC K. pneumoniae, Full MHB (K. pneumoniae NCTC 418) [µg/mL] | MIC K. pneumoniae NCTC418 (K. pneumoniae NCTC 418; 12.5% MH pH 7.4) [µg/mL] | MIC K. pneumoniae NCTC418 (K. pneumoniae NCTC 418; full MH pH 7.4) [µg/mL] | MIC P. aeruginosa, 12.5% MHB (P. aeruginosa PAO1) [µg/mL] | MIC P. aeruginosa, Full MHB (P. aeruginosa PAO1) [µg/mL] | MIC P. aeruginosa PAO1 (P. aeruginosa PAO1; 12.5% MH pH 7.4) [µg/mL] | MIC P. aeruginosa PAO1 (P. aeruginosa PAO1; full MH pH 7.4) [µg/mL] | MIC E. coli, 12.5% MHB (E. coli W3110) [µg/mL] | MIC E. coli, Full MHB (E. coli W3110) [µg/mL] | further results
1 | CC[C@H](C)[C@H](NC(=O)[C@H](CCCNC(=N)N)NC(=O)[C@H](CCCNC(=N)N)NC(=O)[C@@H]1CCCN1C(=O)[C@H]1CCCN1C(=O)[C@H](CCCNC(=N)N)NC(=O)[C@@H]1CCCN1C(=O)[C@H](CCCNC(=N)N)NC(=O)[C@@H]1CCCN1C(=O)[C@H](CC(C)C)NC(=O)[C@H](Cc1ccc(O)cc1)NC(=O)[C@@H]1CCCN1C(=O)[C@@H]1CCCN1C(=O)[C@H](CCCCN)NC(=O)[C@H](CC(=O)O)NC(=O)[C@@H](N)C(C)C)C(=O)N[C@@H](Cc1ccc(O)cc1)C(=O)N[C@@H](CC(N)=O)C(=O)N[C@@H](CCCNC(=N)N)C(N)=O [DP12-Onc] (H-VDKPPYLPRPR[dP]PRRIYNR-NH2) | >1000 | >1000 | 8 (≈ 3.35 µM) | 16 (≈ 6.69 µM) | 8 (≈ 3.35 µM) | 16 (≈ 6.69 µM) | >64 / 64 μg/mL | >64 / 64 μg/mL | 64 (≈ 26.8 µM) | >64 | 4 (≈ 1.67 µM) | 16 (≈ 6.69 µM) | 4 (≈ 1.67 µM) | 16 (≈ 6.69 µM) | 16 (≈ 6.69 µM) | > 64 | 16 (≈ 6.69 µM) | >64 | 2 (≈ 0.837 µM) | 8 (≈ 3.35 µM) | MIC E. coli W3110 (E. coli W3110; 12.5% MH pH 7.4): 2 µg/mL (≈ 0.837 µM); MIC E. coli W3110 (E. coli W3110; full MH pH 7.4): 8 µg/mL (≈ 3.35 µM)
2 | CC[C@H](C)[C@H](NC(=O)[C@H](CCCNC(=N)N)NC(=O)[C@H](CCCNC(=N)N)NC(=O)[C@@H]1CCCN1C(=O)[C@@H]1CCCN1C(=O)[C@H](CCCNC(=N)N)NC(=O)[C@@H]1CCCN1C(=O)[C@H](CCCNC(=N)N)NC(=O)[C@@H]1CCCN1C(=O)[C@H](CC(C)C)NC(=O)[C@H](Cc1ccc(O)cc1)NC(=O)[C@H]1CCCN1C(=O)[C@H]1CCCN1C(=O)[C@H](CCCCN)NC(=O)[C@H](CC(=O)O)NC(=O)[C@@H](N)C(C)C)C(=O)N[C@@H](Cc1ccc(O)cc1)C(=O)N[C@@H](CC(N)=O)C(=O)N[C@@H](CCCNC(=N)N)C(N)=O [DP45-Onc] (H-VDK[dP][dP]YLPRPRPPRRIYNR-NH2) | >1000 | >1000 | 16 (≈ 6.69 µM) | > 64 | 16 (≈ 6.69 µM) | >64 | >64 / >64 μg/mL | >64 / >64 μg/mL | >64 | >64 | > 16 | > 64 | >16 | >64 | > 16 | > 64 | >16 | >64 | 8 (≈ 3.35 µM) | 64 (≈ 26.8 µM) | MIC E. coli W3110 (E. coli W3110; 12.5% MH pH 7.4): 8 µg/mL (≈ 3.35 µM); MIC E. coli W3110 (E. coli W3110; full MH pH 7.4): 64 µg/mL (≈ 26.8 µM)
